According to patent US10945962B2, “Controlled-release peptide compositions and uses thereof” (BOARD OF REGENTS OF THE UNIVERSITY OF NEBRASKA, priority 2011, dated 2021):
Like-named read-outs stand apart in the source and are kept apart here. Square brackets hold non-standard residues; d marks the D form. Ends that are not written are not given here. NMeL = CN[C@@H](CC(C)C)C(=O)O

Key:
[1] = test system: bronchoalveolar lavage (BAL) cells; test: Insufflation of EP67 to the lungs, FACS analysis of BAL cells; assay type: in vivo, mice
Method: In short, EP67 (3 mg/kg) was delivered directly to the lungs of mice through insufflation (IN). Animals were sacrificed one day later. Lungs were lavaged with PBS to isolate the bronchoalveolar lavage (BAL) cells for staining and FACS analysis.

influenza A/A/PR/8 = assay type: in vivo; conditions: mice
[2] = test system: anti-influenza antibodies; test: ELISA for anti-influenza antibodies on serum; assay type: in vivo, mice; conditions: influenza-infected, EP67-treated groups
CA-MRSA strain USA300 = test: Mouse model of MRSA dermonecrotic infection (lesion size, bacterial load); assay type: in vivo, Staphylococcus aureus
[3] = test system: IL-6, TNF-α, INF-γ and KC; test: Measurement of cytokines in tissue homogenates by ELISA; assay type: in vivo, mice
Method: Measurement of cytokines. IL-6, TNF-α, INF-γ and KC inflammatory cytokines were measured in tissue homogenates as previously described using ELISA for IL-6, TNF-α, INF-γ (Morgan E L, et al., Vaccine; 28:8275-8279), or according to manufacturer's protocols (BD and R&D Systems) for KC. Samples were run in triplicate.
Proinflammatory cytokines are enhanced by EP67 treatment. The decrease in lesion size observed in EP67-treated animals indicated an enhanced immune activation in these animals. In order to determine the nature of the immune response activated by EP67 treatment, skin lesions were harvested 48 h post-infection and EP67 or sEP67 treatment, and subjected to ELISA to measure proinflammatory cytokines in tissue homogenates.

neutrophils = test: Neutrophil chemotaxis and myeloperoxidase assay, histopathology of injection site; assay type: in vivo, CD1 mice; conditions: for histopathologic analysis of skin tissue: 250 μg s.c., no bacteria
Method: Neutrophil chemotaxis and myeloperoxidase assay. Neutrophil recruitment at the site of injection by EP67 or sEP67 was examined using an in vivo chemotaxis assay as described previously (van Sorge N M, et al., PLoS One 2008; 3:e2964). Briefly, 250 μg EP67 or sEP67 were injected subcutaneously into the right flank of CD1 mice. The injection was repeated after 24 h. Mice were euthanized 4 h after the second injection and the site of injection excised for histopathologic analysis or determination of myeloperoxidase (MPO) activity as described previously (van Sorge N M, et al., supra). The assay was carried out two times and the samples analyzed in duplicate.
Neutrophil influx is essential for the protective action of EP67. […] Neutrophil recruitment to the site of EP67 injection was further analyzed using an in vivo neutrophil recruitment assay as described previously (van Sorge N M, et al., supra; and Banerjee A, et al., Cell Microbiol; 12:1576-1588). Neutrophil migration was assessed in skin homogenates following injection of EP67 or sEP67 by determining the level of neutrophil enzyme myeloperoxidase (MPO), which serves as an effective indication of neutrophil infiltration (Banerjee A, et al., supra; and Bradley P P, et al., J Invest Dermatol 1982; 78:206-209). This method compares well with other in vivo assays of neutrophil chemotaxis (van Sorge N M, et al., supra).

E. coli strain DHSα = test: Direct killing of bacteria, OD600 growth curves; assay type: cell-based; conditions: for effect on log phase growth (OD600): added at OD600 0.2, 500 μg/m, LB or TSB
Method: E. coli strain DHSα was grown overnight in Lennox Broth (LB). This culture was diluted to an optical density at […] (OD600) of 0.06. The diluted E. coli was dispensed in 1.5 ml aliquots into separate tubes and 1.5 ml of EP67 ([…] ID NO: 4)), EP54 ([…] NO: 3)), scrambled-EP67 (s-EP67) or scrambled-EP54 in LB was added to obtain a final concentration of 500 μg/ml with the E. coli at an OD600 of 0.03. A culture in LB was also prepared. The cultures were incubated at 37° C. with shaking and the OD600 readings recorded hourly. In order to determine whether the growth media altered the effectiveness of EP67, LB was replaced with an alternative growth media, Tryptic Soy Broth (TSB). To test the efficacy of EP67 on bacteria growing in log phase, overnight cultures of DHSα were grown in either LB or TSB. […] DH5α control cultures (absence of additives) were also prepared. The tubes were further shaken at 37° C. and OD600 readings were taken hourly.

[4] = test system: S. aureus (Newman strain); test: S. aureus in vitro EP67 killing curves; assay type: cell-based; conditions: dilution series, LB
Method: 150 μl of LB growth medium plus 50 μl of EP67 or s-EP67 were added to individual culture wells resulting in a dilution series of 6 wells per EP67 or s-EP67. A “no EP67” well (control) was included at the end of each series. S. aureus (Newman strain) was allowed to grow to an OD600 of 0.4 and each well of the dilution series was inoculated with 5 μl of the culture. Two wells with no bacterial inoculums were included to serve as controls. Plates were incubated at 37° C. with agitation and the OD600 of each well was measured hourly using a plate reader.

GBS = test: Group B Streptococcus (GBS) meningitis model; assay type: in vivo; conditions: CD1 mice, 250 μg i.p. at day −1, 0, 1 and 2, 96 hours post-injection
Method: 8-week-old female CD1 mice were treated with 250 μg of EP67 or s-EP67 at day −1, 0, 1 and 2 via i.p. injection. GBS was injected i.p. at 1×10^9 cfu/mouse. Brains and blood were harvested from each mouse 96 hours post-injection. The tissue was homogenized, diluted and plated to determine the cfu/g bacteria.

[5] = test system: S. aureus (USA300 LAC strain) biofilm; test: Catheter-associated biofilm bacterial burden; assay type: in vivo; conditions: C57BL/6 mice, Day 3, relative to sEP67 and PBS vehicle
Method: A S. aureus (USA300 LAC strain) biofilm was established on a hollow catheter (1 cm in length) inserted subcutaneously into C57BL/6 mice by introducing 1000 CFUs of S. aureus into the catheter lumen. At the time of infection, one dose of EP67 (200 μg/ml dissolved in PBS) was introduced. At both 24 and 48 h following infection, a series of four injections of EP67 were made; two into each open end of the catheter (20 μl each) and two along the top and bottom at points perpendicular to the middle of the catheter (50 μl each). Samples of the biofilm and surrounding tissue were obtained at Day 3 and assessed for the presence of viable bacteria by standard culture methods.

BAL cells = conditions: infected with influenza A/PR/8 and simultaneously treated, one day later
Method: To test the robustness of the EP67 response, mice were treated at the time of influenza infection. Animals were sacrificed one day later for analysis of BAL cells as above.

exMAcs and neutrophils = conditions: aged lung
Text: Since the aged mouse is considered a strong model for age-related changes in human immunity, the response of aged mice to EP67 insufflation was examined.

MUC1 epitope = test: Immunization with MUC1/C5a agonist peptides, serum antibody responses (RIA, ELISA); assay type: in vivo; conditions: 100 μg i.p. with RIBI adjuvant, three immunizations, Balb/c and C57B16 mice
Text: Animal Models. The strains of mice used in the studies described in this Example were inbred 6- to 12-week-old C57B16(H-2b) and Balb/c ([…]) females obtained from Jackson Labs (Bar Harbor, Me.). […] The MUC1 peptide selected for these studies contained a motif that may bind to the H-2Kb molecule of the C57B16 mice. Therefore, a strain of mouse that lacked this class I molecule-binding motif (Balb/c) was also studied to determine the relative contribution of the class I-binding motif to the antigen presentation properties of these peptides.
Immunization Protocol. Preimmune sera were obtained from mice, which were subsequently immunized intraperitoneally with 100 μg of the indicated peptide with RIBI adjuvant (MPL+TDM+CWS) (Sigma Immunochemicals). Animals were boosted twice at two-week intervals using the same injection procedure. Sera were obtained following three immunizations (at 6 weeks).
Analysis of Serum Antibody Responses. For radioimmunoassay (RIA), anti-peptide antibodies were determined, before and at different time points after immunization, in 96-well microtiter plates (Dynatech Laboratories, Inc.). Plates were coated with 50 μl of a 100 μg/ml appropriate peptide in phosphate-buffered saline (PBS) pH 7.4 solution overnight at 4° C. The wells were blocked by incubation with 5% dry milk in PBS pH 7.4 for at least two hours. Anti-peptide antibody titers were determined using serial dilutions of sera. […] After washing, specific radioactivity was recorded in a gamma counter (1272 CliniGamma, LKB).
Anti-peptide antibody isotype titers were determined by enzyme-linked immunosorbent assay (ELISA) carried out in 96-well microtiter plates. […] Anti-peptide titers were determined using serial dilutions of sera. […] Again, the plates were washed 4 times with washing buffer and bound enzyme was detected by the addition of 50 μl 1 mg/ml p-nitrophenyl phosphate (Sigma) in 10% diethanolamine (Sigma) pH 9.4. The reaction was stopped by the addition of 50 μl of 0.5 M sodium hydroxide and absorbance values (A405) were determined using Titertek Multiskan (Flow Laboratories, Irvine, Scotland). […]

[6] = EP67 3 mg/kg insufflation, one day later
[7] = 48 h post-infection, compared to sEP67

## Tyr-Ser-Phe-Lys-Asp-Met-Pro-MeL-(D-Ala)-Arg (YSFKDMP[NMeL][dA]R; listed as Homo sapiens) [EP67]
[1]; [6]
  CD11b+CD11c− cells (GR-1+ neutrophils) in the alveolar space: a large population of CD11b^+CD11c^− cells appeared in the alveolar space
  exudate macrophages (exMac) in BAL cells: appearance of cells bearing the CD11b^+CD11c^+ phenotype of exudate macrophages (exMac)
[1]; mouse, in vivo
  dose dependence of EP67-induced changes in BAL populations: displayed a strict dose-response
[1]; seven days post EP67 administration
  time course of the EP67 response in BAL cells: the neutrophils were largely lost
Influenza A/A/PR/8; treated one day after infection
  influenza-induced weight loss: displayed significant protection from influenza-induced weight loss
Influenza A/A/PR/8; treated the day before infection or the day of infection
  influenza-induced weight loss: lost significantly less weight than the non-treated animals
[2]
  anti-influenza Abs in serum: a high concentration of anti-influenza Abs was found in each group
CA-MRSA strain USA300; CD1 mice, 250 μg s.c., 48 h post-bacterial inoculation, compared to sEP67
  cutaneous lesion size: significantly reduced
CA-MRSA strain USA300; CD1 mice, 5 days post-inoculation, compared to sEP67 or PBS
  bacterial load (CFU) within lesions: significant reduction in bacterial load
CA-MRSA strain USA300; CD88−/− mice, EP67 versus sEP67
  lesion size: no difference in lesion size
CA-MRSA strain USA300; CD-1 mice given isotype IgG control antibody, compared to sEP67
  lesion size: significant reduction in lesion size
CA-MRSA strain USA300; neutropenic CD-1 mice (RB6-8C5 monoclonal antibody), EP67 versus sEP67
  lesion size: no quantifiable difference in lesion size
CA-MRSA strain USA300; wild-type CD88+/+ C57Bl/6 mice, compared to sEP67
  lesion size: significantly smaller lesions
[3]; [7]
  IL-6 level in skin lesion homogenate: Significantly higher levels
  murine KC level in skin lesion homogenate: Significantly higher levels
[3]; during MRSA infection
  INF-γ production: increase
  TNF-α production: increase
neutrophils
  histopathologic analysis of skin tissue: massive influx of inflammatory cells, including neutrophils
neutrophils; skin homogenates, 250 μg s.c. twice, compared to sEP67
  myeloperoxidase (MPO) level, accumulating neutrophils: significantly higher
E. coli strain DHSα; 500 μg/ml, start OD600 0.03, LB or TSB
  effect on bacterial growth (OD600): induces direct bacteriostatic/bacteriocidal effects
E. coli strain DHSα
  effect on log phase growth (OD600): significantly reduce and/or stop log phase growth
[4]
  effect on bacterial growth (OD600): dose dependent inhibitory effect
GBS
  protection against GBS infection (cfu/g in brain and blood): protects against GBS infections in the central nervous system
[5]
  bacterial burdens within the biofilm and surrounding tissue: significant decrease in bacterial burdens within the biofilm and surrounding tissue
BAL cells
  BAL exMAcs and neutrophils: showed a similar increase in BAL exMAcs and neutrophils to the uninfected animals treated with EP67
exMAcs and neutrophils
  exMAcs and neutrophils in the alveolar space: induces a large population of exMAcs and neutrophils into the alveolar space

## (MeL)RMYKPaFDS [sEP67, reference compound]
neutrophils
  histopathologic analysis of skin tissue: normal pathology
E. coli strain DHSα
  effect on log phase growth (OD600): little or no effect on growth

## Tyr-Ser-Phe-Lys-Pro-Met-Pro-Leu-(D-Ala)-Arg (YSFKPMPL[dA]R) [EP54, C5a C-terminal decapeptide agonist analog]
MUC1 epitope
  antibody response to inoculation: no appreciable increase in antibody response

## YSFKPMPLaRKQGGFLGL (YSFKPMPL[dA]RKQGGFLGL; listed as Homo sapiens) [peptide 4]
MUC1 epitope
  antibody response to inoculation: immune responses were not produced
MUC1 epitope; listed as MUC1 epitope conjugated to the C5a agonist peptide at its C-terminus
  antibody response to inoculation: no appreciable increase in antibody response
